Measurements from ChEMBL document CHEMBL5649169 (ChemMedChem, 2018).

Legend:
[1] = target: Annexin A7 (Homo sapiens) (UniProt P20073)
[2] = target: AP-1 complex subunit gamma-1 (Homo sapiens) (UniProt O43747)
[3] = target: Actin-related protein 2/3 complex subunit 3 (Homo sapiens) (UniProt O15145)
[4] = target: Atlastin-3 (Homo sapiens) (UniProt Q6DD88)
[5] = target: Coiled-coil domain-containing protein 22 (Homo sapiens) (UniProt O60826)
Cyclin-T2 (Homo sapiens) = Cyclin-T2 (Homo sapiens) (UniProt O60583)
Sequence of Cyclin-T2 (Homo sapiens) (O60583 whole entry): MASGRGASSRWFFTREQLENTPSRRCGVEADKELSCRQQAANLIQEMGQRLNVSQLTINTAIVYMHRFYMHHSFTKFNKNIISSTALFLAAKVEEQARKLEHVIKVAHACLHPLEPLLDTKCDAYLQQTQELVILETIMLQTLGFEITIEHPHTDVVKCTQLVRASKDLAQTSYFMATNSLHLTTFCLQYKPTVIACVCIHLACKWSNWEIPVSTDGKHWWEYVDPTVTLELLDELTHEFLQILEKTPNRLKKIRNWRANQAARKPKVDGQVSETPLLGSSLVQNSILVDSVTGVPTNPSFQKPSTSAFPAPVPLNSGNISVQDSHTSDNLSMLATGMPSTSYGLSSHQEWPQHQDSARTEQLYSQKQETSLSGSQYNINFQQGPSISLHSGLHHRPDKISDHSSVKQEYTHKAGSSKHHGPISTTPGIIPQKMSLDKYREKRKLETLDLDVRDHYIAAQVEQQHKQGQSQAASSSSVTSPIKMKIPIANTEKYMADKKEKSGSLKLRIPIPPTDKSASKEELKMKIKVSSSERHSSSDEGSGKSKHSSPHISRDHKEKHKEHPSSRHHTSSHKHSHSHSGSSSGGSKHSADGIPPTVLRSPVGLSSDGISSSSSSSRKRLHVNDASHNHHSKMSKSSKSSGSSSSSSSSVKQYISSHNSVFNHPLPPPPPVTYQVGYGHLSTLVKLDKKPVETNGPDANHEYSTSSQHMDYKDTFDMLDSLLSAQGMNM

[6] = target: CDP-diacylglycerol--inositol 3-phosphatidyltransferase (Homo sapiens) (UniProt O14735)
[7] = target: Carboxymethylenebutenolidase homolog (Homo sapiens) (UniProt Q96DG6)
[8] = target: Conserved oligomeric Golgi complex subunit 4 (Homo sapiens) (UniProt Q9H9E3)
[9] = target: Cold shock domain-containing protein E1 (Homo sapiens) (UniProt O75534)
[10] = target: Src substrate cortactin (Homo sapiens) (UniProt Q14247)
Cullin-1 (Homo sapiens) = Cullin-1 (Homo sapiens) (UniProt Q13616)
[11] = target: Cytoplasmic dynein 1 heavy chain 1 (Homo sapiens) (UniProt Q14204)
[12] = target: Elongation factor 2 (Homo sapiens) (UniProt P13639)
Emerin (Homo sapiens) = Emerin (Homo sapiens) (UniProt P50402)
Sequence of Emerin (Homo sapiens) (P50402 whole entry): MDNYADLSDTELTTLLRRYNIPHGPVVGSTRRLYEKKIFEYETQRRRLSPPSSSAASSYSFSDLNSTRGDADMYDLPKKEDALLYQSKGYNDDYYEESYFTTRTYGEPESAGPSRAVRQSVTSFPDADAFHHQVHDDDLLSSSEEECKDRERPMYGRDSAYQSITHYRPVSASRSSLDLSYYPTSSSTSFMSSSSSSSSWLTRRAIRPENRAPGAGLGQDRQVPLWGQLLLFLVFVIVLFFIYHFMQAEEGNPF

[13] = target: Extended synaptotagmin-1 (Homo sapiens) (UniProt Q9BSJ8)
[14] = target: Tyrosine-protein kinase FRK (Homo sapiens) (UniProt P42685)
[15] = target: Cyclin-G-associated kinase (Homo sapiens) (UniProt O14976)
[16] = target: Histone deacetylase 2 (Homo sapiens) (UniProt Q92769)
[17] = target: Histone H4 (Homo sapiens) (UniProt P62805)
[18] = target: KH domain-containing, RNA-binding, signal transduction-associated protein 1 (Homo sapiens) (UniProt Q07666)
[19] = target: Leucine-rich repeat-containing protein 47 (Homo sapiens) (UniProt Q8N1G4)
[20] = target: Mitogen-activated protein kinase 11 (Homo sapiens) (UniProt Q15759)
Sequence of Mitogen-activated protein kinase 11 (Homo sapiens) (Q15759 whole entry): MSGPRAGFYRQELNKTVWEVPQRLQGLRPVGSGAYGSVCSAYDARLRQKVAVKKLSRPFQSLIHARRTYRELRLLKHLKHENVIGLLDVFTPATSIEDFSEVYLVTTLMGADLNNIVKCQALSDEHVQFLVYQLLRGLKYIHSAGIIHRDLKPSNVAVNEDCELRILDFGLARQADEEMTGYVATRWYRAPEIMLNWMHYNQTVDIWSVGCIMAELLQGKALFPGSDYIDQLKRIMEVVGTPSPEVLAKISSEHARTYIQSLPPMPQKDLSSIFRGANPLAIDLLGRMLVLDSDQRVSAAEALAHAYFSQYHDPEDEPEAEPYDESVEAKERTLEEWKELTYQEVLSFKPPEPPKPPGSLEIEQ

[21] = target: Serine/threonine-protein kinase Nek9 (Homo sapiens) (UniProt Q8TD19)
[22] = target: Poly [ADP-ribose] polymerase 1 (Homo sapiens) (UniProt P09874)
[23] = target: Sister chromatid cohesion protein PDS5 homolog A (Homo sapiens) (UniProt Q29RF7)
[24] = target: Inorganic pyrophosphatase (Homo sapiens) (UniProt Q15181)
[25] = target: Serine/threonine-protein phosphatase 6 regulatory subunit 1 (Homo sapiens) (UniProt Q9UPN7)
[26] = target: Protein kinase C theta type (Homo sapiens) (UniProt Q04759)
[27] = target: 26S proteasome regulatory subunit 4 (Homo sapiens) (UniProt P62191)
[28] = target: 26S proteasome regulatory subunit 8 (Homo sapiens) (UniProt P62195)
Sequence of 26S proteasome regulatory subunit 8 (Homo sapiens) (P62195 whole entry): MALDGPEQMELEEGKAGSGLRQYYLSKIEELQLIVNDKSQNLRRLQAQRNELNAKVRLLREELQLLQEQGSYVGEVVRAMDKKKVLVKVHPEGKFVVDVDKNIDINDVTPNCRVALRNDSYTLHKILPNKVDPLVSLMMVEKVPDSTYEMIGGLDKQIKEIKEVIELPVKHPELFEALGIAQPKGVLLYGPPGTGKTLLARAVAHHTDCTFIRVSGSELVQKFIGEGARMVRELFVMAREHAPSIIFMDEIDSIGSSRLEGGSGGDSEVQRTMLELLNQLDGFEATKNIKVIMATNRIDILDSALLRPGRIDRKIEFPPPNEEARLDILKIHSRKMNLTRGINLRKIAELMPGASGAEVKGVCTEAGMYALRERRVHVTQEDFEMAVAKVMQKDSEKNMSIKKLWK

[29] = target: Protein-tyrosine kinase 6 (Homo sapiens) (UniProt Q13882)
Sequence of Protein-tyrosine kinase 6 (Homo sapiens) (Q13882 whole entry, looked up): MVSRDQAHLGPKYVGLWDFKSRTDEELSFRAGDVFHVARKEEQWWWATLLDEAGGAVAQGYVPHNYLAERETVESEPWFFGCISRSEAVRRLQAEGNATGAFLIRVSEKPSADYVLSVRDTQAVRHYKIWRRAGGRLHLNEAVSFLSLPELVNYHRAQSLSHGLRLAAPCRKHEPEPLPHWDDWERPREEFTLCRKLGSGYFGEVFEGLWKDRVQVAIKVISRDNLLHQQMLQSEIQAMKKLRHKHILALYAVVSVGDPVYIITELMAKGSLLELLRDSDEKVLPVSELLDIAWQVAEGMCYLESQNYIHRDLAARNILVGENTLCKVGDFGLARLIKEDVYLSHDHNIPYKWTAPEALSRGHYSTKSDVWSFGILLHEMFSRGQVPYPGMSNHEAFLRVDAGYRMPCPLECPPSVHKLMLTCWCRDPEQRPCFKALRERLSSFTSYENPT

[30] = target: Histone-binding protein RBBP4 (Homo sapiens) (UniProt Q09028)
Sequence of Histone-binding protein RBBP4 (Homo sapiens) (Q09028 whole entry): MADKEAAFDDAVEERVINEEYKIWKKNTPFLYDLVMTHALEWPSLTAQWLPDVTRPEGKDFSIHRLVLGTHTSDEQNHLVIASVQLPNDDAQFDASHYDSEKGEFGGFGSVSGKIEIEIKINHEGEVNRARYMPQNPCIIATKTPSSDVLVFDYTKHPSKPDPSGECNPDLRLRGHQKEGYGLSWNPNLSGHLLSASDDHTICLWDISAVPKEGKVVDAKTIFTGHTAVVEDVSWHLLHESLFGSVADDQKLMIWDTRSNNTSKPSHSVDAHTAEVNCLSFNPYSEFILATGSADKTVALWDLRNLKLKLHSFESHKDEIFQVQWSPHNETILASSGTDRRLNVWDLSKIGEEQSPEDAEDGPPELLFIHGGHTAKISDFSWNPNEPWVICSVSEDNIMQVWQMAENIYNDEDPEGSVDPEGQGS

[31] = target: Protein RCC2 (Homo sapiens) (UniProt Q9P258)
[32] = target: Rho-associated protein kinase 2 (Homo sapiens) (UniProt O75116)
[33] = target: Large ribosomal subunit protein uL14 (Homo sapiens) (UniProt P62829)
[34] = target: Small ribosomal subunit protein uS9 (Homo sapiens) (UniProt P62249)
[35] = target: Small ribosomal subunit protein uS13 (Homo sapiens) (UniProt P62269)
[36] = target: Translocation protein SEC63 homolog (Homo sapiens) (UniProt Q9UGP8)
Sequence of Translocation protein SEC63 homolog (Homo sapiens) (Q9UGP8 whole entry): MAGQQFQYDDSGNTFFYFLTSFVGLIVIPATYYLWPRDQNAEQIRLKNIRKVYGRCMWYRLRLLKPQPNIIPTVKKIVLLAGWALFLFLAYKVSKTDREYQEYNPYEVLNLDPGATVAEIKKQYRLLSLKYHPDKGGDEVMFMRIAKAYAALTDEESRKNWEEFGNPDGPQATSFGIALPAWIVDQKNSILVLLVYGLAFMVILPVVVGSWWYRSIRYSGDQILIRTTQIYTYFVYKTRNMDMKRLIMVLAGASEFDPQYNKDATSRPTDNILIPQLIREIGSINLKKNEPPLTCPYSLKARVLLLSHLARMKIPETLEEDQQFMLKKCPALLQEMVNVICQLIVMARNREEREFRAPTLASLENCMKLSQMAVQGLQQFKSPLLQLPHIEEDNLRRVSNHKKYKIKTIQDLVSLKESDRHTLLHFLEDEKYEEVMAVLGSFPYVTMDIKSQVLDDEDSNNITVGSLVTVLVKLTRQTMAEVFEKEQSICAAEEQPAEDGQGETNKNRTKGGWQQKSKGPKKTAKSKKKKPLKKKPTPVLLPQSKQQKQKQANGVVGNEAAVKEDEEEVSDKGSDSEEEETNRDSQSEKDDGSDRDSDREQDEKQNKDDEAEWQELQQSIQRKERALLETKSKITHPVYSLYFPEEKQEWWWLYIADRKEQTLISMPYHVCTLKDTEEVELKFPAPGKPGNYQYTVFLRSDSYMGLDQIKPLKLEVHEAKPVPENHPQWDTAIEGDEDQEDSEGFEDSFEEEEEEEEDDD

[37] = target: Proto-oncogene tyrosine-protein kinase Src (Homo sapiens) (UniProt P12931)
[38] = target: Serine/threonine-protein kinase 10 (Homo sapiens) (UniProt O94804)
Sequence of Serine/threonine-protein kinase 10 (Homo sapiens) (O94804 whole entry, looked up): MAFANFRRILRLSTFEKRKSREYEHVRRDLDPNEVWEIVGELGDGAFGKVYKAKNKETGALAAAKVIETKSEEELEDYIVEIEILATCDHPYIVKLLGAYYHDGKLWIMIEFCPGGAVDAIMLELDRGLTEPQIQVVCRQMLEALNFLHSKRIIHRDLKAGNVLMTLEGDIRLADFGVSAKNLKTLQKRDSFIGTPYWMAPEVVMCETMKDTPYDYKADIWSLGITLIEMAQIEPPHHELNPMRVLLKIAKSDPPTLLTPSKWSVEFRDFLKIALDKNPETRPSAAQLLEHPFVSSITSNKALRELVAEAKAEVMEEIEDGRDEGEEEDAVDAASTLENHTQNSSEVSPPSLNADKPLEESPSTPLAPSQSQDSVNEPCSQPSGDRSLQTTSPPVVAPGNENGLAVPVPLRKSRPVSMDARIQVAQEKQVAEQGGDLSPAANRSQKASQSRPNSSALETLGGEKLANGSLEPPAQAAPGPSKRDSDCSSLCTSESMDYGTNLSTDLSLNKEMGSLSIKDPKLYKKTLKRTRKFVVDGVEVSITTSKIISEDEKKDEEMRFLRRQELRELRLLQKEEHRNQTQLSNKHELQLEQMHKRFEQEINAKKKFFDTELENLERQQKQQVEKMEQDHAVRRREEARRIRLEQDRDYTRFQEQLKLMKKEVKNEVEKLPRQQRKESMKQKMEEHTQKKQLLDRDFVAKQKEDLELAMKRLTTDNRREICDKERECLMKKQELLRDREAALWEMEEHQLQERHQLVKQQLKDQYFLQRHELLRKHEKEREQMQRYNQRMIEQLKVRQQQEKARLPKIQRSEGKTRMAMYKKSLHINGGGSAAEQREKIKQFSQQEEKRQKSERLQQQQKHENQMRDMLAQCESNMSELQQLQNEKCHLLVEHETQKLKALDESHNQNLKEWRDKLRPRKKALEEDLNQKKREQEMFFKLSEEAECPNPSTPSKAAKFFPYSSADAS

[39] = target: tRNA (guanosine(18)-2'-O)-methyltransferase TARBP1 (Homo sapiens) (UniProt Q13395)
[40] = target: TNF receptor-associated factor 2 (Homo sapiens) (UniProt Q12933)
[41] = target: Tubulin alpha-1B chain (Homo sapiens) (UniProt P68363)
[42] = target: Splicing factor U2AF 35 kDa subunit (Homo sapiens) (UniProt Q01081)
[43] = target: E3 ubiquitin-protein ligase UBR4 (Homo sapiens) (UniProt Q5T4S7)
Note: assay method not described here.

Sequence of Coiled-coil domain-containing protein 22 (Homo sapiens) (O60826 whole entry, the tested form may be a part): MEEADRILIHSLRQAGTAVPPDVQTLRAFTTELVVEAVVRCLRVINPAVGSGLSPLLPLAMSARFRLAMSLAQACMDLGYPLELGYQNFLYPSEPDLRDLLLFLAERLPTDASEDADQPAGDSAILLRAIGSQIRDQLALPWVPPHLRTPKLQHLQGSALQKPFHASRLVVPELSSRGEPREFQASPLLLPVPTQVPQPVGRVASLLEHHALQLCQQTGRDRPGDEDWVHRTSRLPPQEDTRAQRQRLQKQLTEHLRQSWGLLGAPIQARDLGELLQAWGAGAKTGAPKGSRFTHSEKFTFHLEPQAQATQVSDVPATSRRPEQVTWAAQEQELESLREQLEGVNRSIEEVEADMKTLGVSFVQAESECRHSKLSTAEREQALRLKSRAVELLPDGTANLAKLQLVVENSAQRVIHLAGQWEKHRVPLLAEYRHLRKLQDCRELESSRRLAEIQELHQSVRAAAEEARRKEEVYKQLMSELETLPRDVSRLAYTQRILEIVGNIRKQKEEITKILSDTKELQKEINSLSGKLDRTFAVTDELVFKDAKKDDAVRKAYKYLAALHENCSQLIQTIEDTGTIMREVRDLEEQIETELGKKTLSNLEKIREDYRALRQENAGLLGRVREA

## Cc1ccc(C(=O)Nc2cccc(C(F)(F)F)c2)cc1Nc1nc(-c2cccnc2)nc2c1cnn2C
[1]
  ED50: 21.9 µM
[2]
  ED50: 0.163 µM
[3]
  ED50: 3.47 µM
[4]
  ED50: 1.15 µM
[5]
  ED50: 2.25 µM
Cyclin-T2 (Homo sapiens)
  ED50: 12.8 µM
[6]
  ED50: 0.000993 µM
[7]
  ED50: 0.671 µM
[8]
  ED50: 4.61 µM
[9]
  ED50: 72.6 µM
[10]
  ED50: 0.0605 µM
Cullin-1 (Homo sapiens)
  ED50: 0.000443 µM
[11]
  ED50: 1.3 µM
[12]
  ED50: 4.03 µM
Emerin (Homo sapiens)
  ED50: 45.5 µM
[13]
  ED50: 0.00937 µM
[14]
  ED50: 2.16 µM
[15]
  ED50: 4.02 µM
Homo sapiens
  ED50: 0.0217 µM
[16]
  ED50: 18.9 µM
[17]
  ED50: 4.09 µM
[18]
  ED50: 0.118 µM
[19]
  ED50: 0.0207 µM
[20]
  ED50: 0.0255 µM
[21]
  ED50: 0.163 µM
[22]
  ED50: 7.11 µM
[23]
  ED50: 0.978 µM
[24]
  ED50: 8.44 µM
[25]
  ED50: 10.4 µM
[26]
  ED50: 0.00259 µM
[27]
  ED50: 91.8 µM
[28]
  ED50: 7.4 µM
[29]
  ED50: 5.95 µM
[30]
  ED50: 11 µM
[31]
  ED50: 92.2 µM
[32]
  ED50: 0.0201 µM
[33]
  ED50: 11.7 µM
[34]
  ED50: 0.0497 µM
[35]
  ED50: 2.79 µM
[36]
  ED50: 95700 µM
[37]
  ED50: 3.6 µM
[38]
  ED50: 2.82 µM
[39]
  ED50: 18.4 µM
[40]
  ED50: 3.11 µM
[41]
  ED50: 1.73 µM
[42]
  ED50: 0.000531 µM
[43]
  ED50: 0.00366 µM

## Cc1ccc(C(=O)Nc2cccc(C(F)(F)F)c2)cc1Nc1nc(-c2cccnc2)nc2nn(C)cc12
[1]
  ED50: 0.0697 µM
[2]
  ED50: 1.37 µM
[3]
  ED50: 0.0666 µM
[4]
  ED50: 0.126 µM
[5]
  ED50: 0.598 µM
Cyclin-T2 (Homo sapiens)
  ED50: 0.0632 µM
[6]
  ED50: 0.0581 µM
[7]
  ED50: 0.0561 µM
[8]
  ED50: 0.0222 µM
[9]
  ED50: 0.099 µM
[10]
  ED50: 19.6 µM
Cullin-1 (Homo sapiens)
  ED50: 0.0051 µM
[11]
  ED50: 51200 µM
[12]
  ED50: 12.5 µM
Emerin (Homo sapiens)
  ED50: 0.501 µM
[13]
  ED50: 6850 µM
[14]
  ED50: 8.67 µM
[15]
  ED50: 2.32 µM
Homo sapiens
  ED50: 481 µM
[16]
  ED50: 0.0881 µM
[17]
  ED50: 0.00989 µM
[18]
  ED50: 9.62 µM
[19]
  ED50: 0.00913 µM
[20]
  ED50: 6.69 µM
[21]
  ED50: 0.0519 µM
[22]
  ED50: 0.083 µM
[23]
  ED50: 2.82 µM
[24]
  ED50: 1.31 µM
[25]
  ED50: 0.00142 µM
[26]
  ED50: 2.63 µM
[27]
  ED50: 0.00477 µM
[28]
  ED50: 0.443 µM
[29]
  ED50: 68.5 µM
[30]
  ED50: 0.458 µM
[31]
  ED50: 37.9 µM
[32]
  ED50: 0.432 µM
[33]
  ED50: 7.5 µM
[34]
  ED50: 0.345 µM
[35]
  ED50: 0.00691 µM
[36]
  ED50: 0.0344 µM
[37]
  ED50: 3.43 µM
[38]
  ED50: 0.0351 µM
[39]
  ED50: 63.1 µM
[40]
  ED50: 0.68 µM
[41]
  ED50: 3.87 µM
[42]
  ED50: 0.137 µM
[43]
  ED50: 0.593 µM
